{
  "source": "patent EP0784620B1",
  "about": "“N-SUBSTITUTED PIPERIDINYL BICYCLIC BENZOATE DERIVATIVES” (JANSSEN PHARMACEUTICA N.V., priority 1994, dated 1996)",
  "note": "Counter-ions that a name gives are not always drawn.",
  "data": [
    {"tested_on": "ileum segments", "assay": "Guinea Pig Ileum Coaxial Stimulation", "type": "tissue-based", "settings": "Cavia porcellus, 5 min; concentration of 3.10^-9 M; five minutes after administration versus before; submaximal electrical stimulation (80% of maximal response); read-out: increase of the amplitude of the twitch response", "protocol": "Example 10 : Guinea Pig Ileum Coaxial Stimulation. Dunkin Hartley guinea-pigs of both sexes (body weight ± 500 g) were killed by decapitation. The ileum was removed and cleansed with warmed and oxygenated Krebs-Henseleit solution. Non-terminal, intact ileum segments, 4.5 cm long, of the guinea pig were vertically suspended with a preload of 1 g in 100 ml Krebs-Henseleit solution (37.5°C), gassed with a mixture of 95% O2 and 5% CO2. Transmural excitation was applied over the whole length of the ileum segment by means of two platinum electrodes, the anode threaded through the lumen of the ileum, the cathode in the bathing solution. The preparation was excited with single rectangular […] [1 msec; 0.1 Hz; submaximal response (current leading to 80% of maximal reponse)] from a progammable stimulator. Contractions were measured isometrically. During the stabilization period of 30 min, the strips were repeatedly stretched to a tension of 2g, in order to obtain a steady state tension of lg. Before starting the electrical stimulation, a cumulative dose response curve of acetylcholine was given. The electrical stimulation was started at supramaximal current to determine the maximal amplitude of the twitch responses. When these responses were stable, a submaximal stimulation to obtain 80% of the maximal responses was given until the twitch responses were constant for at least 15 min, whereafter a single dose of the test compound was added to the bath fluid. The amplitude of the twitch response five minutes after the administration of the test compound is compared with the amplitude before the administration of the test compound.", "units": {"activation at 0.003 µM": "%"}, "values": [
      {"smiles": "CC1(C)CCc2c(N)c(Cl)cc(C(=O)OC3CCN(CC4CCCO4)CC3)c2O1", "note": "(racemic) [Compound 32, 1-[(tetrahydro-2-furanyl)methyl]-4-piperidinyl 5-amino-6-chloro-3,4-dihydro-2,2-dimethyl-2H-1-benzopyran-8-carboxylate]", "activation at 0.003 µM": "> 5"},
      {"smiles": "Nc1c(Cl)cc(C(=O)OC2CCN(CCCC3CCCO3)CC2)c2c1CCO2", "note": "(racemic) [Compound 35]", "activation at 0.003 µM": "> 5"},
      {"smiles": "Nc1c(Cl)cc(C(=O)OC2CCN(CCC3CCCO3)CC2)c2c1CCO2", "note": "(racemic) [Compound 36, 1-[2-(tetrahydro-2-furanyl)ethyl]-4-piperidinyl 4-amino-5-chloro-2,3-dihydro-7-benzofurancarboxylate]", "activation at 0.003 µM": "> 5"},
      {"smiles": "CCn1c(=O)n(CCN2CCC(OC(=O)c3cc(Cl)c(N)c4c3OCC4)CC2)c2ccccc21", "note": "[Compound 1]", "activation at 0.003 µM": "> 5"},
      {"smiles": "CC(C)OCCCN1CCC(OC(=O)c2cc(Cl)c(N)c3c2OCC3)CC1", "note": "[Compound 4, 1-[3-(1-methylethoxy)propyl]-4-piperidinyl 4-amino-5-chloro-2,3-dihydro-7-benzofurancarboxylate monohydrochloride]", "activation at 0.003 µM": "> 5"},
      {"smiles": "CC1(CCCN2CCC(OC(=O)c3cc(Cl)c(N)c4c3OCC4)CC2)OCCO1", "note": "[Compound 6, 1-[3-(2-methyl-1,3-dioxolan-2-yl)propyl]-4-piperidinyl 4-amino-5-chloro-2,3-dihydro-7-benzofurancarboxylate]", "activation at 0.003 µM": "> 5"},
      {"smiles": "Nc1c(Cl)cc(C(=O)OC2CCN(CCCn3nc(Cl)ccc3=O)CC2)c2c1CCO2", "note": "[Compound 7, 1-[3-(3-chloro-6-oxo-1(6H)-pyridazinyl)propyl]-4-piperidinyl 4-amino-5-chloro-2,3-dihydro-7-benzofurancarboxylate]", "activation at 0.003 µM": "> 5"},
      {"smiles": "CC(=O)CCCN1CCC(OC(=O)c2cc(Cl)c(N)c3c2OCC3)CC1", "note": "[Compound 8, 1-(4-oxopentyl)-4-piperidinyl 4-amino-5-chloro-2,3-dihydro-7-benzofurancarboxylate]", "activation at 0.003 µM": "> 5"},
      {"smiles": "Nc1c(Cl)cc(C(=O)OC2CCN(CCOCCO)CC2)c2c1CCO2", "note": "[Compound 14, 1-[2-(2-hydroxyethoxy)ethyl]-4-piperidinyl 4-amino-5-chloro-2,3-dihydro-7-benzo-furancarboxylate]", "activation at 0.003 µM": "> 5"},
      {"smiles": "COCCCN1CCC(OC(=O)c2cc(Cl)c(N)c3c2OCC3)CC1", "note": "[Compound 15, 1-(3-methoxypropyl)-4-piperidinyl 4-amino-5-chloro-2,3-dihydro-7-benzofuran-carboxylate]", "activation at 0.003 µM": "> 5"},
      {"smiles": "CCN1CCC(OC(=O)c2cc(Cl)c(N)c3c2OC(C)(C)C3)CC1", "note": "[Compound 16]", "activation at 0.003 µM": "> 5"},
      {"smiles": "CCOC(=O)CCCN1CCC(OC(=O)c2cc(Cl)c(N)c3c2OCC3)CC1", "note": "[Compound 33, ethyl 4-[[(4-amino-5-chloro-2,3-dihydro-7-benzofuranyl)carbonyl]oxy]-1-piperidinebutanoate]", "activation at 0.003 µM": "> 5"},
      {"smiles": "Nc1c(Cl)cc(C(=O)OC2CCN(CC3CC3)CC2)c2c1CCO2", "note": "[Compound 34]", "activation at 0.003 µM": "> 5"},
      {"smiles": "Cc1nccnc1NCCN1CCC(OC(=O)c2cc(Cl)c(N)c3c2OCC3)CC1", "note": "[Compound 39, 1-[2-[(3-methyl-2-pyrazinyl)amino]ethyl]-4-piperidinyl 4-amino-5-chloro-2,3-dihydro-7-benzofurancarboxylate]", "activation at 0.003 µM": "> 5"},
      {"smiles": "COC1CN(CCCC2(C)OCCO2)CCC1OC(=O)c1cc(Cl)c(N)c2c1OCC2", "note": "(stereo not shown) [Compound 46]", "activation at 0.003 µM": "> 5"},
      {"smiles": "COC1CN(CCCn2nc(Cl)ccc2=O)CCC1OC(=O)c1cc(Cl)c(N)c2c1OCC2", "note": "(stereo not shown) [Compound 50]", "activation at 0.003 µM": "> 5"}
    ]}
  ]
}
